Results published in PubChem BioAssay AID743165 (Broad Institute, 2013).

Test system: Mycobacterium tuberculosis replicating, CFU imaging
Assay: IC90 against replicating M. tuberculosis, dose response, CFU by imaging, dry powder, 7108-03 (AID 743165)

CCOC(=O)NC(=O)c1ccsc1NC(=O)c1nc2ccccc2s1
IC90: < 8 µM

Cn1c(NC(=O)c2ccccc2)nc2ccccc21
IC90: < 48 µM
